Consider three molecules from patent US12551499B2 (Atea Pharmaceuticals, Inc., priority 2020, dated 2026).

“And” between values parts separate entries of the source, which are not always exact repeats. Equal values may be shown once. Read-outs that look alike come from different tables or passages of the source.

Data set [1] concerns human bronchial epithelial cells. The following applies: 10 μM.
Data set [2] has as its system human nasal epithelial cells. The following applies: 10 μM.
For data set [3] the following is noted: male, cynomolgus monkey, in vivo, 12 h.
The next data set can be described thus: in vivo. The following applies: male, cynomolgus monkey, Mean Intracellular Compound 1-6 Concentration.
The subject of data set [4] is human coronavirus alpha-229E. Briefly: Visual CPE assay, coronavirus alpha-229E in Huh7 cells. In kind it is cell-based. To be noted: Huh-7. On the procedure:
(§1) Huh7 cells were seeded in 96-well plates at a concentration that yielded 80-100% confluent monolayers in each well after overnight incubation. Compound 1A was dissolved in DMSO to 10 mg/mL and 8 half-log serial dilutions in test medium (modified Eagle's medium containing 5% fetal bovine serum and […] gentamicin) were prepared with the highest concentration of 50 μg/mL. 100 μL of each concentration were added to 5 test wells on the 96-well plate and 3 wells were infected with test virus in test medium (≤100 CCID50 per well). An equivalent amount of test medium was added to the remaining test wells to assess toxicity to uninfected cells. Six wells were infected to serve as untreated virus controls. Media only was added to 6 wells to serve as cell controls. Plates were incubated at 37° C. in a humidified 5% CO2 atmosphere until cytopathic effect (CPE) was observed microscopically.

The subject of the next data set is Huh7 cells. Briefly: Visual cytotoxicity in uninfected Huh7 cells. In kind it is cell-based, human. On the procedure: as §1
Another data set relates to SARS-CoV-2 (WA1). Briefly: Virus yield reduction assay, SARS-CoV-2 in dNHBE / HAE cells. In kind it is cell-based. On the procedure:
The antiviral activity of Compound 1A was next evaluated against SARS-CoV-2 (WA1) using differentiated normal human bronchial epithelial (dNHBE; HAE (human airway epithelial) cells made to order by MatTek Corporation (Ashland, MA).
Cell Culture: dNHBE cells were grown on 6 mm mesh disks and arrived in kits with either 12- or 24-well transwell inserts. During transportation the tissues were stabilized on a sheet of agarose, which was removed upon receipt. One insert was estimated to consist of approximately 1.2×10^6 cells. Kits of cell inserts (EpiAirway™ AIR-100, AIR-112) originated from a single donor, #9831, a healthy, non-smoking person. The cells have unique properties in forming layers, the apical side of which is exposed only to air and that creates a mucin layer. Upon arrival, the cell transwell inserts were immediately transferred to individual wells of a 6-well plate according to manufacturer's instructions, and 1 mL of MatTek's proprietary culture medium (AIR-100-MM) was added to the basolateral side, whereas the apical side was exposed to a humidified 5% CO2 environment. Cells were cultured at 37° C. for one day before the start of the experiment. After the 24 hour equilibration period, the mucin layer, secreted from the apical side of the cells, was removed by washing with 400 μL pre-warmed 30 mM HEPES buffered saline solution 3×. Culture medium was replenished following the wash steps.
Viruses: Virus was diluted in AIR-100-MM medium before infection, yielding a multiplicity of infection (MOI) of approximately 0.0015 CCID50 per cell.
The cells were maintained at the air-liquid interface.
Determination of virus titers from each treated cell culture: Vero 76 cells were seeded in 96-well plates and grown overnight (37° C.) to confluence. Samples containing virus were diluted in 10-fold increments in infection medium and 200 μL of each dilution transferred into respective wells of a 96-well microtiter plate. Four microwells were used for each dilution to determine 50% viral endpoints. After 5 days of incubation, each well was scored positive for virus if any cytopathic effect (CPE) was observed as compared with the uninfected control and counts were confirmed for endpoint on days 6 and 7. […] The day 5 values were reported. Untreated, uninfected cells were used as the cell controls.
The antiviral activities of test compounds were evaluated against SARS-CoV-2 (USA-WA1/2020) using made to order human airway epithelial (HAE) cells.
Cell Culture: HAE cells were grown on 6 mm mesh disks and arrived in kits with either 12- or 24-well transwell inserts. During transportation the tissues were stabilized on a sheet of agarose, which was removed upon receipt. One insert was estimated to consist of approximately 1.2×10^6 cells. Kits of cell inserts (EpiAirway™ AIR-100 or AIR-112) originated from a single donor, #9831, a healthy, non-smoking person. The cells form polarized monolayers, the apical side of which is exposed to air and creates a mucin layer. Upon arrival, the cell transwell inserts were immediately transferred to individual wells of a 6-well plate according to the manufacturer's instructions, and 1 mL of MatTek's proprietary culture medium (AIR-100-MM) was added to the basolateral side, whereas the apical side was exposed to a humidified 5% CO2 environment. Cells were cultured at 37° C. in a humidified atmosphere containing 5% CO2 for one day before the start of the experiment. After the 24-h equilibration period, the mucin layer, secreted from the apical side of the cells, was removed by washing with 400 μL pre-warmed 30 mM HEPES buffered saline solution 3×. Culture medium was replenished following the wash steps.
Viruses: Virus was diluted in AIR-100-MM medium before infection to yield a MOI when added to cultures of approximately 0.0015 CCID50 per cell.
Select compounds of the present invention were tested in a SARS-CoV-2 assay. […]

Another data set relates to MERS-CoV (EMC). In kind it is cell-based. The following applies: MERS-CoV versus other CoVs.
For data set [5], the system named is human airway epithelial (HAE) cells.
A further data set relates to RD cells. The following applies: human.
The nature of data set [6]: Plasma PK in non-human primates after oral Compound 2A. To be noted: monkey plasma, oral Compound 2A 60 mg/kg then 30 mg/kg every 12 h, steady state.
For data set [7], the system named is human bronchial epithelial cells. Briefly: Triphosphate formation in human bronchial epithelial cells. The following applies: human nasal and bronchial epithelial cells, up to 100 μM.
In data set [8] the test system is human airway epithelial (HAE) cells. Nature of the data set: Cytotoxicity in dNHBE / HAE cells by visual inspection. The following applies: visual toxicity, Table 11.

On to `C[C@@]1(F)[C@H](O)[C@@H](COP(=O)(O)OP(=O)(O)OP(=O)(O)O)O[C@H]1n1cnc2c(=O)[nH]c(N)nc21` [Compound 1-6], for which the “Mean Intracellular Compound 1-6 Concentration” value was 698 µM in data set [1] (0 h); 560 µM in data set [1] (15 h); 462 µM in [1] (24 h); 290 µM in data set [1] (48 h); 217 µM in data set [1] (72 h); 236 µM in [2] (0 h). Also, the “Mean Intracellular Compound 1-6 Concentration” value in data set [2] (15 h) is 204 µM; in data set [2] (24 h), 170 µM; in data set [2] (48 h), 107 µM; in data set [2] (72 h) it was 73.8 µM; in data set [3], 0.089 µM. In the data set “in vivo”, this molecule displayed a concentration at 24 h of 32 nM.
In general, EC50 refers to the midpoint of the concentration-response curve. By CC50 is commonly meant the concentration that lowers cell viability or growth by half. What is called EC90 is the concentration at which the effect reaches the 90% level. Broadly, the Cmax is the maximum level reached in the sampled fluid or tissue. As a reminder, the Tmax is the time from dosing to the highest level. In the case of `CNc1nc(N)nc2c1ncn2[C@@H]1O[C@H](CO[P@@](=O)(N[C@@H](C)C(=O)OC(C)C)Oc2ccccc2)[C@@H](O)[C@@]1(C)F` [Compound 1A], the response in data set [4] was half-maximal at 1000 nM (EC50). For the same molecule, the 50% cytotoxic concentration (CC50) is above 50000 nM in the data set with Huh7 cells (Alpha-229E row), above 50000 nM with Huh7 cells (Beta-OC43 row), above 50000 nM in the data set with Huh-7 cells (human) and above 86000 nM with RD cells. For the same molecule, in the data set on SARS-CoV-2 (WA1) (SARS-CoV-2 (WA1) in dNHBE, single replicates), the “replicate EC90 determinations” value came out at 0.41 µg/mL. The concentration for an effect of 90% (EC90) is 460 nM and 520 nM in the data set with SARS-CoV-2 (WA1) (SARS-CoV-2 in HAE (dNHBE) cells, Table 11, read-out: VYR Assay EC90); 700 nM and 420 nM in the data set with SARS-CoV-2 (WA1) (SARS-CoV-2 in HAE, footnotes f, g, h of Table 5, read-out: EC90, single replicates); 630 nM in the data set with SARS-CoV-2 (WA1) (Severe acute respiratory syndrome coronavirus 2, HAE, SARS-CoV-2 in HAE (dNHBE) cells, Table 11, read-out: VYR Assay EC90). Moreover, the “difference of activity between MERS-CoV and other CoVs” value with MERS-CoV (EMC) is given as 30 fold. Moreover, in the data set with Huh-7 cells, the cytotoxicity entry is on record as “No cytotoxicity was detected”. The “VYR Assay CC50” value in data set [5] is recorded as “no visual tox no visual tox no visual tox”. The AUC0-12 h in data set [6] was 0.44 µM·h. Moreover, the peak level in data set [6] (Cmax) was 640 nM. Further, in data set [6], the T1/2 was found to be 44.4 min. Moreover, the time to peak (Tmax) in [6] lay within 30 to 60 min. Also, the toxicity result in data set [7] is listed as “no toxicity was observed”.
`CCC(CC)COC(=O)[C@H](C)N[P@](=O)(OC[C@H]1O[C@@](C#N)(c2ccc3c(N)ncnn23)[C@H](O)[C@@H]1O)Oc1ccccc1` [Remdesivir]: the “VYR Assay CC50” value in [8] was “no visual tox no visual tox no visual tox no visual tox”.
